ChEMBL document CHEMBL3044767, “GdCl3 promoted synthesis of novel pyrimidine fused indazole derivatives and their anticancer activity” (Med Chem Res, 2012)
In brackets after ≈: the same amount, converted by molar mass.

Experiments:
U-937 [1] = experiment: Ratio of etoposide IC50 to compound IC50 for Homo sapiens (human) U937 cells after 48 hr by MTT assay; format: functional
U-937 [2] = experiment: Cytotoxicity against Homo sapiens (human) U937 cells after 48 hr by MTT assay; format: functional, cell-based; details: U-937, 48 h
THP-1 = experiment: Cytotoxicity against Homo sapiens (human) THP1 cells after 48 hr by MTT assay; format: functional, cell-based; details: THP-1, 48 h

Row | Structure (SMILES) | Ratio IC50 (U-937 [1]) | IC50 (U-937 [2]) | IC50 (THP-1)
1 | C=CC1(C)CCNc2c3c(-c4ccccc4)cc(C(F)(F)F)c(C#N)c3nn21 (configuration not stated) | 1.09 | 9.73 µg/mL (≈ 25.4 µM) | –
2 | N#Cc1c(-c2ccccc2)cc(C(F)(F)F)c2c3n(nc12)[C@H]1OCCC[C@H]1CN3 | 1.63 | 6.49 µg/mL (≈ 16.3 µM) | 65.4 µg/mL (≈ 164 µM)
3 | C=CC1(C)C[C@H](c2ccccc2)Nc2c3c(-c4ccccc4)cc(C(F)(F)F)c(C#N)c3nn21 (some centres not stated) | 1.21 | 8.7 µg/mL (≈ 19 µM) | 53.3 µg/mL (≈ 116 µM)
4 | N#Cc1c(-c2ccccc2)cc(C(F)(F)F)c2c3n(nc12)[C@H]1C=CCC[C@H]1CN3 | 4 | 2.64 µg/mL (≈ 6.69 µM) | –
5 | N#Cc1c(C(F)(F)F)cc(-c2ccccc2)c2c3n(nc12)C(c1ccccc1)CCN3 (configuration not stated) | 1.33 | 7.92 µg/mL (≈ 18.9 µM) | –
6 | N#Cc1c(-c2ccccc2)cc(C(F)(F)F)c2c3n(nc12)C(c1ccccc1)C[C@H](c1ccccc1)N3 (some centres not stated) | 1.4 | 7.52 µg/mL (≈ 15.2 µM) | –
7 | N#Cc1c(C(F)(F)F)cc(-c2ccccc2)c2c3n(nc12)[C@H]1OCCC[C@H]1CN3 | – | 11.2 µg/mL (≈ 28.2 µM) | 33.5 µg/mL (≈ 84.1 µM)
8 | N#Cc1c(C(F)(F)F)cc(-c2ccccc2)c2c3n(nc12)[C@H]1OCCC[C@H]1[C@H](c1ccccc1)N3 | 1.17 | 9.02 µg/mL (≈ 19 µM) | 79.9 µg/mL (≈ 168 µM)
9 | N#Cc1c(-c2ccccc2)cc(C(F)(F)F)c2c3n(nc12)C(c1ccccc1)CCN3 (configuration not stated) | 1.13 | 9.36 µg/mL (≈ 22.4 µM) | –
10 | C=CC1(C)CCNc2c3c(C(F)(F)F)cc(-c4ccccc4)c(C#N)c3nn21 (configuration not stated) | – | 53.5 µg/mL (≈ 140 µM) | –
